According to patent publication US20230115176A1 (Ra Pharmaceuticals, Inc., priority 2019, published 2023):
Values after ≈ are worked out from the molar mass of the structure shown.

Experiments:
Human C5 [1] = molecular target: T1, Human C5 (Homo sapiens, UniProt P01031); experiment: Surface plasmon resonance (SPR), compounds on immobilized human C5 (Example 2, Table 5); type: binding; conditions: lowest value where a range of compound concentrations were analyzed
T1 construct: purchased Complement Technology
Procedure: Surface plasmon resonance (SPR) technology was used to evaluate affinity, specificity, and kinetics of interactions between compounds and complement protein C5 in real time without the need for labeling.
SensiQ FE SPR system (SensiQ Technologies, Oklahoma City, Okla.) was used to provide sensitive and accurate detection of binding of small molecules to the very large C5 protein (MW=195,000 Da). The chip was prepared by preconditioning the sensor according to the protocol of the SensiQ FE using 10 mM HCl, 50 mM NAOH and 0.1% SDS. The sensor chip was activated by using a mixture of fresh EDAC (1-ethyl-3-(-3-dimethylaminopropyl) carbodiimide) (Sigma Co., St. Louis, Mo.) and NHS (N-hydroxy succinimide) (Sigma Co., St. Louis, Mo.). Human C5 was surface immobilized to a Pioneer Biosensor chip via random amine coupling (>12,000 RU) which makes use of the N-terminus and ε-amino groups of lysine residues of the protein ligand. Immobilization was done by injecting 30-40 μg/ml C5 in 10 mM NaAc pH 4.5 onto designated channels at a rate of 10 μL/minute for 12 minutes, targeting RL>12000 RU for small molecules.
Compounds were diluted in DMSO in a format of 100-fold final concentration and 3-fold serial dilution (5 or 6 dilutions). The 100-fold compounds were transferred to one-fold DMSO-free assay buffer in the 96-well test plate. The compound solution was injected at a rate of 60 μL/minute for 30-60 seconds, followed by 60-90 seconds dissociation time, buffer flushing and/or priming. Blank solution (1% DMSO assay buffer) was run for every 6 injections of compounds. Double reference by subtracting both blank channel and reference channel was applied for data processing. Titration of C5 binding compounds to the C5-immobilized biosensor chip surface led to interactions between C5 and potential binders, and the resulting changes of surface refractive index were sensitively measured by the system.
SPR data were analyzed with the managing software provided by SensiQ and equilibrium dissociation constant (KD) values were determined for each compound. Where a range of compound concentrations were analyzed, the lowest value obtained is presented.

[2] = test system: CD59-deficient RBCs from patients with paroxysmal nocturnal hemoglobinuria (PNH); experiment: Hemolysis inhibition with PNH patient cells, flow cytometry for CD59 and plate assay (Example 6); type: cell-based, human; conditions: FIG. 2
Procedure: Flow cytometry studies were carried out to assess the ability of compounds to inhibit hemolysis of CD59-deficient RBCs from patients with paroxysmal nocturnal hemoglobinuria (PNH). […] To induce hemolysis, donor-matched serum was acidified to pH 6.4 with HCl. Compounds, serum, and RBCs, 2.5% volume per volume (v/v), were incubated for 18 hours at 37° C. After incubation, cells were washed and re-suspended in 1 ml fluorescence-associated cell sorting (FACS) buffer (0.1% BSA IgG-free in PBS, 0.1% Sodium Azide). Then, anti-CD59 antibody conjugated with phycoerythrin was added at a final concentration of 0.25 μg/ml to 100 μl of cell suspension and incubated at 4° C. for 30 minutes. Cells were then washed twice with cold FACS buffer, re-suspended in FACS buffer and analyzed with a BD Accuri C6 Flow Cytometer (BD Biosciences, San Jose, Calif.) for CD59 levels. The level of CD59-positive cells was monitored as a measure of complement-mediated hemolysis of PNH type III cells. A negative control using non-acidified serum was used to establish a baseline of CD59 expression under non-hemolytic conditions (FIG. 1A).

purified human C5 = purified human C5 (Homo sapiens, UniProt P01031); experiment: Red blood cell hemolysis assay, optical, absorbance 412 nm (Example 3, Table 6); type: cell-based; conditions: antibody-sensitized sheep erythrocytes, 1.5% human C5 depleted sera, 0.5 nM human C5; average where replicates
Human C5 [3] = molecular target: T1, Human C5; experiment: Red blood cell (RBC) hemolysis assay, luminescent (Example 24, Table 29); type: cell-based; conditions: sheep EA cells, […] C5-depleted human serum, 0.5 nM human C5, 1 hour at 37° C., luminescence (Table 29)
Text: (§1) Numbers in parenthesis following the compound number indicate alternate enantiomers (as distinguished by retention time during chromatographical separation).

[4] = molecular target: T2, human C5 complement protein (Homo sapiens, UniProt P01031); experiment: Surface plasmon resonance (SPR), immobilized human C5, 37° C. (Example 23, Table 28); type: binding; conditions: lowest value obtained where a range of concentrations was analyzed (Table 28)
[5] = molecular target: T2, human C5 complement protein; experiment: Surface plasmon resonance (SPR), immobilized human C5, 37° C. (Example 18, Table 24); type: binding; conditions: lowest value obtained where a range of concentrations was analyzed
[6] = test system: P-glycoprotein (P-gp, MDR1); experiment: Permeability assay, bidirectional transport, efflux ratio (Example 30, Table 34); type: in vitro ADME, canine; conditions: dog, MDCK-MDR1, pH 7.4; read-out: MDCK-MDR efflux ratio
Procedure: (§2) Permeability assays were carried out to provide a preliminary indication of suitability for oral dosing and compound permeability across the blood brain barrier. Unidirectional and bidirectional compound transport across Madin Darby canine kidney (MDCK) cell monolayers was assessed. For unidirectional transport assessment, transport across MDCK wild type (MDCK-WT) cell monolayers was assessed. For bidirectional transport, transport across MDCK-MDR1 cell monolayers was assessed. MDCK-MDR1 cells express the MDR1 gene encoding the P-glycoprotein (P-gp) efflux protein.
(§3) MDCK-WT and MDCK-MDR1 cells were plated onto permeable polycarbonate supports in 12-well Costar transwell plates and allowed to grow and differentiate for 3 days. After 3 days in culture, the culture medium (DMEM supplemented with 10% FBS) was removed from both sides of the transwell inserts and cells were rinsed with warm HBSS. After the rinse step, the chambers were filled with warm transport buffer (HBSS containing 10 mM HEPES, 0.25% BSA, pH 7.4) and the plates were pre-incubated at 37° C. for 30 minutes prior to TEER (Trans Epithelial Electric Resistance) measurements.
(§4) The buffer in the donor chamber (apical side for A-to-B assay, basolateral side for B-to-A assay) was removed and replaced with the working solution (3 μM test compound and 10 μM for control compounds in transport buffer). The plates were then placed at 37° C. under light agitation. At designated time points (30, 60 and 90 min), an aliquot of transport buffer from the receiver chamber was removed and replenished with fresh transport buffer. Samples were quenched with ice-cold ACN containing internal standard and then centrifuged to pellet protein. Resulting supernatants were further diluted with 50/50 ACN/H2O (Atenolol diluted in just water) and submitted for LC-MS/MS analysis. Apparent permeability (Pap) values were calculated from duplicate determinations. Atenolol and propranolol were tested as low and […] permeability references.
Efflux ratios were calculated for bidirectional transport across MDCK-MDR1 cell monolayers as an indication of compound efflux by P-gp. The efflux ratio is calculated using the ratio of mean Papp values for B to A transport to mean Papp values for A to B transport [Papp(BA)/Papp(AB)].

[7] = Permeability assay, unidirectional transport, Papp (Example 30, Table 34); type: in vitro ADME, canine; conditions: dog, pH 7.4; MDCK-WT cell monolayers, A-to-B, 3 μM test compound, 37° C., duplicate determinations
Procedure: as §2, §3, §4
Papp values indicate extent of compound permeation across monolayers.

Human C5 [8] = molecular target: T1, Human C5; experiment: Red blood cell (RBC) hemolysis assay, luminescent (Example 13, Table 22); type: cell-based; conditions: sheep EA cells, […] C5-depleted human serum, 0.5 nM human C5, 1 hour 37° C., luminescence
Text: Compound CU0136 is a racemic mixture of Compound CU0186 and CU0187. Numbers in parenthesis following compound numbers indicate alternate enantiomers (as distinguished by retention time during chromatographical separation).

[9] = Kinetic solubility in PBS pH 7.4, HPLC-UV (Example 21, Table 27); type: physicochemical; conditions: phosphate buffered saline, aqueous buffer, kinetic from dmso stock, 0.5 M PBS, shaken minimum 24 h at approximately 25° C., HPLC-UV 270 nm
In short: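 Supernatant measured by HPLC-UV (270 nm) against a DMSO calibration curve of 15.6–500.0 μM after filtration. Triplicate samples were made from 10 mM DMSO stock in 0.05 M phosphate buffer pH 7.4 (5% DMSO) and shaken at least 24 h at about 25 °C.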

Human C5 [10] = molecular target: T1, Human C5; experiment: Red blood cell (RBC) hemolysis assay, luminescent (Example 28, Table 32); type: cell-based; conditions: sheep EA cells, 1.5% C5-depleted human serum, 0.5 nM human C5, 1 hour at 37° C., luminescence (Table 32)
Procedure: Sheep red blood cells coated with rabbit anti-sheep erythrocyte antiserum (EA cells; Complement Technology, Tyler, Tex.) were used to assay compound inhibitory activity of the classical complement activation pathway. Briefly, the EA cells were washed once and resuspended in the same volume of GVB++ buffer (Complement Technology, Tyler, Tex.). 25 μL of EA cells were then distributed into each well of 384-well tissue culture plates using Apricot iPipette Pro (Apricot Designs; Covina, Calif.). Compounds were tested in 10 points of final concentrations ranging from 16.67 μM to 1.65 μM in a 6-fold titration series. Compounds were dispensed into 384-well plates from 6.7 mM and 3.35 μM DMSO working stocks using an HP Digital Dispenser (HP; Corvallis, Oreg.). The reactions also contained 1.5% (v/v) C5-depleted human serum (Complement Technology). Hemolysis was induced by addition of human C5 (Complement Technology) at a concentration of 0.5 nM and plates were incubated for 1 hour at 37° C. in a cell culture incubator. The extent of hemolysis was measured by ability of released hemoglobin to catalyze luminol in the presence of hydrogen peroxide. Luminescence was then measured using a plate reader. Luminescence measurements were used to prepare a dose-response curve. From the curve, the half maximal inhibitory concentration (IC50) for each compound was determined, where the IC50 represents the concentration of each compound needed to reduce red blood cell hemolysis by half.

[11] = molecular target: T2, human C5 complement protein; experiment: Surface plasmon resonance (SPR), immobilized human C5, 37° C. (Example 27, Table 31); type: binding; conditions: lowest value obtained where a range of concentrations was analyzed (Table 31)
[12] = Drug-Metabolism-and-Pharmacokinetics (DMPK), single IV and oral dose in rats (Example 5); conditions: rat, in vivo; fasted male Sprague Dawley rats, 1 mg/kg IV and 10 mg/kg PO, 5% DMSO: 20% HP-Beta-CD
Procedure: Single intravenous (IV) and oral dose (P0, per oral) administration of C5 inhibitors were carried out in rats. Rats were then analyzed for Drug-Metabolism-and-Pharmacokinetic (DMPK) properties, used to determine the pharmacokinetics and oral bioavailability of the C5 inhibitors.
SM0011 was formulated as a clear solution at 1 mg/mL in 5% DMSO: 20% HP-Beta-CD. Fasted male Sprague Dawley rats were dosed with the solution at 1 MPK (mg/kg) IV and 10 MPK (mg/kg) PO. Analysis of the DMPK properties of the compound were used to determine the bioavailability.

Human C5 [13] = molecular target: T1, Human C5; experiment: Hemolysis assay, luminescent, classical complement pathway (Example 4, Table 7); type: cell-based; conditions: sheep EA cells, 1.5% C5-depleted human serum, 0.5 nM human C5, luminescence readout
Text: as §1

T1 sequence (P01031 19-1676): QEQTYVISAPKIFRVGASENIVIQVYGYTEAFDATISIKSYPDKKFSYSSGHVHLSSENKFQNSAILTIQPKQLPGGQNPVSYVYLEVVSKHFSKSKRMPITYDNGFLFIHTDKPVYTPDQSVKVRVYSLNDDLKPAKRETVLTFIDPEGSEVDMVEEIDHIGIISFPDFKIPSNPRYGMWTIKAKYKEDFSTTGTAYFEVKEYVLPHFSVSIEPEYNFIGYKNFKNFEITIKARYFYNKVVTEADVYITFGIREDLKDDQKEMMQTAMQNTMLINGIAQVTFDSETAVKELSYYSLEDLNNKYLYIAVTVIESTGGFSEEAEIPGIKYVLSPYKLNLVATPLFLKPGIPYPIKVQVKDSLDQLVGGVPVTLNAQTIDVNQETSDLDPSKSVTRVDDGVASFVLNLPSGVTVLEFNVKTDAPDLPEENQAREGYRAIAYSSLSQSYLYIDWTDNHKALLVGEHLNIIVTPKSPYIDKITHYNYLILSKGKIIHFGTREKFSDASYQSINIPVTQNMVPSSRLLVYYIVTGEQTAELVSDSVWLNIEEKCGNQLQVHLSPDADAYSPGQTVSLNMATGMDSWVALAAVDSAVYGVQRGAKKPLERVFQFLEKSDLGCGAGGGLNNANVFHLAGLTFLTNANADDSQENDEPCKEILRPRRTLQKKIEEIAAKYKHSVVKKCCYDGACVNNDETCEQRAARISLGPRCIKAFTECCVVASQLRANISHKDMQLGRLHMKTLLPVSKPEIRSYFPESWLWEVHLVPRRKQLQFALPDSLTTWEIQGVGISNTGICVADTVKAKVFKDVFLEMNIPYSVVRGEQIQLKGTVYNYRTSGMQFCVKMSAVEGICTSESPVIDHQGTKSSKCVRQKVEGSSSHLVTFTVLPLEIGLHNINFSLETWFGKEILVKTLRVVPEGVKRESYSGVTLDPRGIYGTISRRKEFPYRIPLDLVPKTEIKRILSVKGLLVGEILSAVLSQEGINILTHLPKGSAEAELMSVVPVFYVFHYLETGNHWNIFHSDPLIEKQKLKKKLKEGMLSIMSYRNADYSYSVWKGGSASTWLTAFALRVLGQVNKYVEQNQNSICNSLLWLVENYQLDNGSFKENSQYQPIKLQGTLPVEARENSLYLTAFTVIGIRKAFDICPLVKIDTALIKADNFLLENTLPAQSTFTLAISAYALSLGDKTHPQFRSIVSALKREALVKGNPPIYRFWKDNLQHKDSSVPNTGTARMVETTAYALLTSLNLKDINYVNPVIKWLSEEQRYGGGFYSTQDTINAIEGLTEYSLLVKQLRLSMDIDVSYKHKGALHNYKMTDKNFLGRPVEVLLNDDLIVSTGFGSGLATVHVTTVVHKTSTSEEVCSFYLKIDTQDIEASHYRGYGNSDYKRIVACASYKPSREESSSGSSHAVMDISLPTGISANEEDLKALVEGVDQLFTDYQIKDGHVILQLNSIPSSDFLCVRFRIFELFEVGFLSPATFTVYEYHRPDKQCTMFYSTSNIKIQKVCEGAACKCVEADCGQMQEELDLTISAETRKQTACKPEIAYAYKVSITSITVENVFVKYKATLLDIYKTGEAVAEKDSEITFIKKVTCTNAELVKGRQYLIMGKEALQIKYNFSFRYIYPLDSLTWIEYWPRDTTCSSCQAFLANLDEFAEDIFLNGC
T2 sequence (P01031 19-1676): as above
Sequence of purified human C5 (P01031 19-1676): as above

efflux ratio at 3 μM [6]	Papp A→B at 3 μM [7]	solubility kinetic [9]	Structure (SMILES)	other results
144	57 nm/s	–	COc1cc(CC(=O)N[C@@H]2CN(C)C[C@@H]2F)ccc1CN1C(=O)N(c2ccc(OC)c(OCCCC3CC3)c2)CC[C@@H]1C [SC0109]	IC50 (Human C5 [10]): 1.2 nM
98	66 nm/s	96 µM (≈ 56.1 µg/mL)	CCCCCOc1cc(N2CC[C@H](C)N(Cc3ccnc4c3c(Cl)cn4CC(=O)N3CC(O)C3)C2=O)ccc1OC [SC0120]	IC50 (Human C5 [10]): 1.5 nM; Kd [11]: 0.01 nM
18	153 nm/s	–	CCCCCOc1cc(N2CC[C@@H](C)N(Cc3cccc4c3c(Cl)cn4CC(=O)N(C)C)C2=O)ccc1OC [SC0110]	IC50 (Human C5 [10]): 1.3 nM
62	143 nm/s	–	CCCCCOc1cc(N2CC[C@H](C)N(Cc3ccnc4c3c(Cl)cn4CC(=O)N3CC[C@H](N4CCOCC4)C3)C2=O)ccc1OC [SC0100]	IC50 (Human C5 [10]): 0.9 nM
12	164 nm/s	13 µM (≈ 7.22 µg/mL)	CCCCCOc1cc(N2CC[C@H](C)N(Cc3cccc4c3c(Cl)cn4CC(=O)N(C)C)C2=O)ccc1OC [SC0112]	IC50 (Human C5 [10]): 1.3 nM; Kd [11]: 0.28 nM

Second part, the molecule before the results:

Structure (SMILES)	efflux ratio at 3 μM [6]	Papp A→B at 3 μM [7]	solubility kinetic [9]	other results
COc1ccc(NC(=O)NC(CO)c2ccccc2O)cc1OCCCC(C)C (stereo not shown) [SM0001, 1-(2-hydroxy-1-(2-hydroxyphenyl)ethyl)-3-(4-methoxy-3-((4-methylpentyl)oxy)phenyl)urea]	–	–	–	Kd (Human C5 [1]): 49 nM; inhibition of PNH patient hemolysis with increasing concentrations [2]: dose-dependent manner; IC50 (purified human C5): 20.9 nM
CCCCCOc1cc(N2CC3(CC3)CN(Cc3ccccc3OC)C2=O)ccc1OC [SC0064]	–	–	–	IC50 (Human C5 [3]): 23.7 nM; Kd [4]: 11.1 nM
COc1cc(CC(=O)N(C)C)ccc1CN1CCCN(c2ccc(OC)c(OCCCC3CC3)c2)C1=O [CU0555]	15	230 nm/s	–	Kd [5]: 1.06 nM
COc1cc(CC(=O)N(C)C)ccc1CN1CCCN(c2ccc(OC)c(OCCCC(C)(F)F)c2)C1=O [CU0140]	63	260 nm/s	404 µM (≈ 216 µg/mL)	IC50 (Human C5 [8]): 15.8 nM
COc1cc(CC(=O)N2CCOCC2)ccc1CN1CCCN(c2ccc(OC)c(OCCCC(C)(F)F)c2)C1=O [CU0145]	83	168 nm/s	278 µM (≈ 160 µg/mL)	IC50 (Human C5 [8]): 15 nM
CCCCCOc1cc(N2CC3(COC3)CN(Cc3ccccc3OC)C2=O)ccc1OC [SC0066]	–	–	–	IC50 (Human C5 [3]): 39.7 nM; Kd [4]: 43.7 nM
CCCCCOc1cc(N2CCCN(Cc3ccc(CNC(C)=O)cc3OC)C2=O)ccc1OC [CU0160]	61	216 nm/s	413 µM (≈ 200 µg/mL)	IC50 (Human C5 [8]): 23.5 nM
CCCCCOc1cc(N2CCCN(Cc3ccnc4c3c(Cl)cn4CC(=O)N(C)C)C2=O)ccc1OC [CU0261]	17	261 nm/s	31 µM (≈ 16.8 µg/mL)	IC50 (Human C5 [8]): 11 nM
CCCCCOc1cc(N2CCCN(Cc3ccnc4c3c(Cl)cn4CC(=O)N(C)CC#N)C2=O)ccc1OC [CU0529]	75	171 nm/s	50 µM (≈ 28.4 µg/mL)	Kd [5]: 0.322 nM
COc1ccc(NC(=O)N[C@@H](CO)c2ccccc2)cc1OCCCC(C)C [SM0011]	–	–	–	bioavailability [12]: ~30%; IC50 (Human C5 [13]): 60.2 nM; Kd (Human C5 [1]): 157 nM; IC50 (purified human C5): 266 nM
CCCCCOc1cc(N2CCCN(Cc3ccnc4c3c(Cl)cn4CC(=O)N(C)C)C2=O)ncc1OC [CU0558]	9	252 nm/s	271 µM (≈ 147 µg/mL)	Kd [5]: 0.152 nM
CCCCCOc1cc(N2CCCN(Cc3ccnc4c3c(Cl)cn4CC(=O)N3CCC3)C2=O)ccc1OC [CU0560]	23	230 nm/s	31 µM (≈ 17.2 µg/mL)	Kd [5]: 0.054 nM
